Source: patent US20180230127A1 (PFIZER INC., priority 2015, published 2018)
Where a name gives a salt, the structure may show the parent alone.

biological target: T1, human IRAK4 kinase domain (aa 154-460) (Homo sapiens, UniProt Q9NWZ3); assay: IRAK4 Enzymatic DELFIA Assay; assay type: biochemical; settings: 0.6 mM ATP (KM); 114 pM IRAK4 kinase domain; 200 nM substrate; 5% DMSO
T1 construct: human IRAK4 kinase domain (aa 154-460; GenBank ID AF445802)
T1 sequence (Q9NWZ3 154-460): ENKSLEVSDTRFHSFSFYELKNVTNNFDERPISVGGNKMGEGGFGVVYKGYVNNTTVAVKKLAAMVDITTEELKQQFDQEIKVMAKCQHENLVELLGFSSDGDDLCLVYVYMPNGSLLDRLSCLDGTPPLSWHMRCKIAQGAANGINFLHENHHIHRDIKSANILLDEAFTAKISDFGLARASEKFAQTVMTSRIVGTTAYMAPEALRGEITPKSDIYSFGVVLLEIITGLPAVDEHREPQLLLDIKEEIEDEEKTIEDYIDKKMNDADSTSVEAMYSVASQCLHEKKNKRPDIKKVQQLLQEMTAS
Procedure: IRAK4 Enzymatic DELFIA Assay.
This is an in vitro assay to measure IRAK4 enzymatic activity utilizing the DELFIA (Dissociation-Enhanced Lanthanide Fluorescent Immunoassay, Perkin-Elmer) platform, with the human IRAK4 kinase domain (aa 154-460) construct to characterize IRAK4 inhibitor and control compounds at 0.6 mM ATP (KM). The final amount of enzyme in the assay is 114 pM IRAK4 kinase domain, final concentration of substrate is 200 nM, and final concentration of DMSO is 5%.
The test compound was solubilized in DMSO to a stock concentration of 30 mM. The dose response plates were prepared with a 2 mM primary compound concentration, and then diluted in DMSO in a four-fold series for a total of 10 data points. Compounds were prepared as a 20-fold multiple of the final in-assay concentration
To begin the assay, 45 μL of reaction mixture containing 20 mM HEPES pH=7.5, 5 mM MgCl2, 0.0025% Brij-35, […], 228 pM phosphorylated recombinant human IRAK4 kinase domain (aa 154-460; GenBank ID AF445802) were aliquoted into Ultra-Clear Polypropylene, 96-well, U-Bottom Plates (Corning Life Sciences). 5 μL of test compound from the dose-response plate was added to the reaction mixture and incubated for 15 minutes at room temperature. Then 50 μL of 20 mM HEPES pH=7.5, 5 mM MgCl2, 0.0025% Brij-35, 600 μM ATP, and 400 nM ERM-biotinylated peptide (AGAGRDKYKTLRQIR) were added to start the reaction. The reaction was incubated for 90 minutes at room temperature and stopped by the addition of 25 μL 0.5M EDTA.
100 μL of the reaction mixture was transferred to a streptavidin coated detection plate (EvenCoat Streptavidin Coated Plates, 96-Well, R&D Systems) and incubated for 30 minutes at room temperature. The plates were washed 4 times with 100 μL per well of PBS containing 0.05% Tween-20. Plates were then incubated with 50 μL per well of antibody cocktail of Anti-pERM antibody (Cell Signaling Technology) diluted 1:5000, plus Anti-Rabbit IgG EuN1 at 0.242 μg/ml (Perkin-Elmer Life Sciences) in a solution of 10 mM MOPS pH=7.5, 150 mM NaCl, 0.05% Tween-20, 0.02% NaN3, 1% BSA, 0.1% Gelatin for 45 minutes. The plates were washed 4× with 100 μL per well of PBS containing 0.05% Tween-20. Then 100 μL per well of DELFIA Enhancement Solution were added to the plate and then read on an EnVision Model 2103 using a 340 nm excitation wavelength and a 665 nm emission detection.

| Structure (SMILES) | IC50 [nM] |
| --- | --- |
| CC(C)Oc1cc2c(O[C@@H]3CCCN(C(=O)[C@H](C)O)C3)ccnc2cc1C(N)=O [Example 13, 4-({(3R)-1-[(2S)-2-hydroxypropanoyljpiperidin-3-yl}oxy)-6-(propan-2-yloxy)quinoline-7-carboxamide formate] | 751 |
| N#CCC(=O)N1CCC[C@@H](Oc2ccnc3cc(C(N)=O)c(OC(F)F)cc23)C1 [Example 31, 4-{[(3R)-1-(cyanoacetyl)piperidin-3-yl]oxy}-6-(difluoromethoxy) quinoline-7-carboxamide] | 101 |
| CC(C)Oc1cc2c(O[C@H]3CCN(C(=O)CC#N)C[C@H]3F)ccnc2cc1C(N)=O [Example 18, 4-{[(3R,4S)-1-(cyanoacetyl)-3-fluoropiperidin-4-yl]oxy}-6-(propan-2-yloxy)quinoline-7-carboxamide formate] | 660 |
| CC(C)Oc1cc2c(O[C@@H]3CCCN(C(=O)[C@H](C)N)C3)ccnc2cc1C(N)=O [Example 7, 4-{[(3R)-1-(L-alanyl)piperidin-3-yl]oxy}-6-(propan-2-yloxy)quinoline-7-carboxamide formate] | 143 |
| COc1cc2c(O[C@@H]3CCCN(C(=O)CC#N)C3)ccnc2cc1C(N)=O [Example 30, (R)-4-((1-(2-cyanoacetyl)piperidin-3-yl)oxy)-6-methoxyquinoline-7-carboxamide] | 28 |
| CC(C)Oc1cc2c(O[C@@H]3CCCN(C(=O)C(F)F)C3)ccnc2cc1C(N)=O [Example 5, 4-{[(3R)-1-(difluoroacetyl)piperidin-3-yl]oxy}-6-(propan-2-yloxy)quinoline-7-carboxamide formate] | 35 |
| CC(C)Oc1cc2c(O[C@H]3CCN(C(=O)CC#N)C3)ccnc2cc1C(N)=O [Example 39, 4-{[(3S)-1-(cyanoacetyl)pyrrolidin-3-yl]oxy}-6-(propan-2-yloxy)quinoline-7-carboxamide] | 156 |
| CC(C)Oc1cc2c(O[C@@H]3C[C@@H](C)N(C(=O)CC#N)C3)ccnc2cc1C(N)=O [Example 16, 4-{[(3R,5R)-1-(cyanoacetyl)-5-methylpyrrolidin-3-yl]oxy}-6-(propan-2-yloxy)quinoline-7-carboxamide formate] | 110 |
| CC(C)Oc1cc2c(O[C@@H]3CCCN(C(=O)CC#N)C3)ccnc2cc1C(N)=O [Example 28, 4-{[(3R)-1-(cyanoacetyl)piperidin-3-yl]oxy}-6-(propan-2-yloxy)quinoline-7-carboxamide] | 4 |
| CC(C)Oc1cc2c(O[C@H]3CCN(C(=O)CC#N)C3)nccc2cc1C(N)=O [Example 1, 1-{[(3S)-1-(cyanoacetyl)pyrrolidin-3-yl]oxy}-7-(propan-2-yloxy)isoquinoline-6-carboxamide formate] | 53 |
| Cc1cc(O[C@@H]2CCCN(C(=O)CC#N)C2)c2cc(OC(C)C)c(C(N)=O)cc2n1 [Example 29, (R)-4-((1-(2-cyanoacetyl)piperidin-3-yl)oxy)-6-isopropoxy-2-methylquinoline-7-carboxamide] | 148 |
| CC(C)Oc1cc2c(O[C@@H]3CCCN(C(=O)C(C)C#N)C3)ccnc2cc1C(N)=O (mixture of isomers) [Example 34, 4-{[(3R)-1-(2-cyanopropanoyl)piperidin-3-yl]oxy}-6-(propan-2-yloxy)quinoline-7-carboxamide] | 926 |
| CC(C)Oc1cc2c(O[C@@H]3CCCN(C(=O)C(F)(F)F)C3)ccnc2cc1C(N)=O [Example 9, 6-(propan-2-yloxy)-4-{[(3R)-1-(trifluoroacetyl)piperidin-3-yl]oxy}quinoline-7-carboxamide formate] | 263 |

Other lines, results leading:

| IC50 [nM] | Structure (SMILES) |
| --- | --- |
| 36 | CC(C)Oc1cc2c(O[C@@H]3CCCNC3)cccc2cc1C(N)=O [Example 69, (R)-3-isopropoxy-5-(piperidin-3-yloxy)-2-naphthamide trifluoroacetate] |
| 299 | CC(C)Oc1cc2c(O[C@@H]3CCCN(C(=O)[C@H](N)CC#N)C3)ccnc2cc1C(N)=O [Example 48, 4-({(3R)-1-[(2R)-2-amino-3-cyanopropanoyl]piperidin-3-yl}oxy)-6-(propan-2-yloxy)quinoline-7-carboxamide trifluoroacetate] |
| 135 | CC(C)Oc1cc2c(O[C@@H]3CCCNC3)ccnc2cc1C(N)=O [Example 58, (R)-4-(piperidin-3-yloxy)-6-(propan-2-yloxy)quinoline-7-carboxamide hydrochloride] |
| 1300 | Cc1cc(O[C@@H]2CCCNC2)c2cc(OC(C)C)c(C(N)=O)cc2n1 [Example 68, (R)-6-isopropoxy-2-methyl-4-(piperidin-3-yloxy)quinoline-7-carboxamide trifluoroacetate] |
| 221 | CC(C)Oc1cc2c(O[C@@H]3CCCNC3)ncc(Cl)c2cc1C(N)=O [Example 55, 4-chloro-1-[(3R)-piperidin-3-yloxy]-7-(propan-2-yloxy)isoquinoline-6-carboxamide hydrochloride] |
| 29 | CC(C)Oc1cc2c(O[C@H]3CN(C(=O)CC#N)CC[C@@H]3C)nccc2cc1C(N)=O [Example 49, 1-{[(3R,4S)-1-(cyanoacetyl)-4-methylpiperidin-3-yl]oxy}-7-(propan-2-yloxy)isoquinoline-6-carboxamide] |
| 160 | CC(C)Oc1cc2c(OC3CCCNC3)nccc2cc1C(N)=O (stereo not drawn) [Example 64, 1-(piperidin-3-yloxy)-7-(propan-2-yloxy)isoquinoline-6-carboxamide hydrochloride] |
| 1390 | NC(=O)c1cc2nccc(O[C@@H]3CCCNC3)c2cc1OC(F)F [Example 67, (R)-6-(difluoromethoxy)-4-(piperidin-3-yloxy)quinoline-7-carboxamide] |
| 3040 | CC(C)Oc1cc2c(O[C@H]3CNCC[C@@H]3C)ccnc2cc1C(N)=O [Example 78, 4-{[(3R,4S)-4-methylpiperidin-3-yl]oxy}-6-(propan-2-yloxy)quinoline-7-carboxamide] |
| 157 | CC(C)Oc1cc2c(OC3CCN(C(=O)CO)CC3)nccc2cc1C(N)=O [Example 51, 1-{[1-(hydroxyacetyl)piperidin-4-yl]oxy}-7-(propan-2-yloxy)isoquinoline-6-carboxamide] |
| 919 | CC(C)Oc1cc2c(O[C@@H]3CC[C@H](C)NC3)ccnc2cc1C(N)=O [Example 59, 4-{[(3R,6S)-6-methylpiperidin-3-yl]oxy}-6-(propan-2-yloxy)quinoline-7-carboxamide] |
| 1470 | CC(C)Oc1cc2c(O[C@H]3CCNC3)nccc2cc1C(N)=O [Example 79, 7-(propan-2-yloxy)-1-[(3S)-pyrrolidin-3-yloxy]isoquinoline-6-carboxamide] |
| 92 | CC(C)Oc1cc2c(OC3CCNCC3)nccc2cc1C(N)=O [Example 60, 1-(piperidin-4-yloxy)-7-(propan-2-yloxy)isoquinoline-6-carboxamide] |
| 97 | CC(C)Oc1cc2c(O[C@@H]3CCCN(C(=O)[C@@H](N)CC#N)C3)ccnc2cc1C(N)=O [Example 46, 4-({(3R)-1-[(2S)-2-amino-3-cyanopropanoyl]piperidin-3-yl}oxy)-6-(propan-2-yloxy)quinoline-7-carboxamide trifluoroacetate] |
| 419 | CCOc1cc2c(O[C@@H]3CCCNC3)ccnc2cc1C(N)=O [Example 65, (R)-6-ethoxy-4-(piperidin-3-yloxy)quinoline-7-carboxamide hydrochloride] |
| 82 | CC(C)Oc1cc2c(O[C@@H]3CCN(C(=O)CC#N)C3)ccnc2cc1C(N)=O [Example 40, 4-{[(3R)-1-(cyanoacetyl)pyrrolidin-3-yl]oxy}-6-(propan-2-yloxy)quinoline-7-carboxamide] |
| 1100 | CC[C@H](C)Oc1cc2c(O[C@@H]3CCCNC3)ccnc2cc1C(N)=O [Example 72, 6-[(2S)-butan-2-yloxy]-4-[(3R)-piperidin-3-yloxy]quinoline-7-carboxamide] |
